Measurements as given in patent US20260176320A1, “MODULATORS OF G-PROTEIN COUPLED RECEPTORS” (priority 2018, published 2026).
Read-outs that look alike come from different tables or passages of the source. Numbered stars: 1 amine (or outer) side, 2 acyl side, 3 side chain; on linkers, the order of the positions; unused ones are H or OH. Square brackets hold non-standard residues; d marks the D form. Side chains are listed from the residue outwards. Peptide text beside a SMILES is read from it. * marks the point of attachment. γGlu = O=C(O)[C@H](CCC(=O)[*:2])N[*:1]; X2 = O=C(CSCC(=O)*)NCCN1C(=O)CSC1=O; Palmitoyl = CCCCCCCCCCCCCCCC(=O)*; Aib = CC(C)(N)C(=O)O

Key:
[1] = biological target: GLP-1R (Homo sapiens, UniProt P43220); test: HitHunter cAMP assay (GLP-1R); assay type: cell-based; conditions: cAMP; for Emax: read-out: (Emax) GLP-1R
How it was run: (§1)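 Luminescent readout of cAMP by enzyme-fragment immunocompetition gave agonist concentration-response data. Cells (10,000/well) sat in HBSS buffer containing IBMX 625 μM, HEPES 10 mM and BSA 0.2%, exposed to agonist for 30 min at room temperature.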

[2] = biological target: T1, GIP-R (Homo sapiens, UniProt P48546); test: HitHunter cAMP assay (GIP-R); assay type: cell-based; conditions: cAMP; for Emax: read-out: (Emax) GIP-R
T1 sequence (P48546 22-466): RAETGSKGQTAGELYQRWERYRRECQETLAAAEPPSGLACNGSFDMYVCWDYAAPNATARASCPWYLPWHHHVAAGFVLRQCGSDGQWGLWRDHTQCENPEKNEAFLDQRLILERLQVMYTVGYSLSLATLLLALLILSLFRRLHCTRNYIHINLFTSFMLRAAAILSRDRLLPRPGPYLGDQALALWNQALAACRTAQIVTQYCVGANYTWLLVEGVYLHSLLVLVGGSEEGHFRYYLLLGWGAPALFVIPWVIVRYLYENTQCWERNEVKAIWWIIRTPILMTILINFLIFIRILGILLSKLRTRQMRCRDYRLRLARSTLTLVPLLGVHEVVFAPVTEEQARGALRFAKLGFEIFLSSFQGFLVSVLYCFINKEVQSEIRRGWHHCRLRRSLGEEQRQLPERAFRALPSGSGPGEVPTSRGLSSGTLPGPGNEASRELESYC
How it was run: as §1

[3] = Table 3, read-out: EC50 GLP-1R/nM
[4] = Table 3A, read-out: EC50 GLP-1R/nM
[5] = Table 3, read-out: EC50 GIP-R/nM
[6] = Table 3A, read-out: EC50 GIP-R/nM

Chain of GLP-1R (P43220 24-463): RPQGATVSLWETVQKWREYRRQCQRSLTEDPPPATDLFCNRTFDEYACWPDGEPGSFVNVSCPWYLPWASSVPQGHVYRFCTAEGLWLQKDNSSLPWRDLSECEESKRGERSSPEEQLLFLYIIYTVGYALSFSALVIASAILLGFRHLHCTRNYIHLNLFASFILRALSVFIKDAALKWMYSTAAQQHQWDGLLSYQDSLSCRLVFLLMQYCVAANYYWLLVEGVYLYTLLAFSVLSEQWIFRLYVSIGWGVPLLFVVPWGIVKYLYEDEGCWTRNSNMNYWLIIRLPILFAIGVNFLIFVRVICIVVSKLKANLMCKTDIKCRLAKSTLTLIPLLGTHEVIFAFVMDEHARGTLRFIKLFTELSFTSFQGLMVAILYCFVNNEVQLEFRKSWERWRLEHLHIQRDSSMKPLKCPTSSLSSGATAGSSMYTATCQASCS

| Compound | Emax ([1]; Table 3) [%] | EC50 [1, 3] [nM] | Emax ([1]; Table 3A) [%] | EC50 [1, 4] [nM] | Emax ([2]; Table 3) [%] | EC50 [2, 5] [nM] | Emax ([2]; Table 3A) [%] | EC50 [2, 6] [nM] | EC50 ([1]; EC50 GLP-1R/nM, Table 3) [nM] | EC50 ([1]; EC50 GLP-1R/nM, Table 3A) [nM] | EC50 ([2]; EC50 GIP-R/nM, Table 3) [nM] | EC50 ([2]; EC50 GIP-R/nM, Table 3A) [nM] |
| --- | --- | --- | --- | --- | --- | --- | --- | --- | --- | --- | --- | --- |
| CCCCCCCCCCCCCCCC(=O)N[C@@H](CCC(=O)NCCCC[C@H](NC(=O)[C@H](CO)NC(=O)[C@@H]1CCCN1C(=O)[C@@H]1CCCN1C(=O)[C@@H]1CCCN1C(=O)[C@H](C)NC(=O)CNC(=O)[C@H](CO)NC(=O)[C@H](CO)NC(=O)[C@@H]1CCCN1C(=O)CNC(=O)CNC(=O)[C@H](C)NC(=O)[C@H](CC(C)C)NC(=O)[C@H](CC(C)C)NC(=O)[C@H](Cc1c[nH]c2ccccc12)NC(=O)[C@H](CC(N)=O)NC(=O)[C@@H](NC(=O)[C@H](Cc1ccccc1)NC(=O)[C@H](CCC(=O)O)NC(=O)C(C)(C)NC(=O)[C@@H](NC(=O)[C@H](C)NC(=O)[C@H](CCC(N)=O)NC(=O)[C@H](CCCCN)NC(=O)[C@H](CC(=O)O)NC(=O)[C@H](CC(C)C)NC(=O)[C@H](Cc1ccc(O)cc1)NC(=O)[C@@H](NC(=O)[C@H](CO)NC(=O)[C@H](Cc1ccc(O)cc1)NC(=O)[C@H](CC(=O)O)NC(=O)[C@H](CO)NC(=O)[C@@H](NC(=O)[C@H](Cc1ccccc1)NC(=O)[C@@H](NC(=O)CNC(=O)[C@H](CCC(=O)O)NC(=O)CSCC(=O)NCCN1C(=O)CSC1=O)[C@@H](C)O)[C@@H](C)O)[C@@H](C)CC)C(C)C)C(C)C)C(N)=O)C(=O)O [Compound 80] (X2-EGTFTSDYSIYLDKQAV[Aib]EFVNWLLAGGPSSGAPPPSK([γGlu-Palmitoyl])-NH2) | 92 | 0.1 to 1 | 92 | 0.1 to 1 | 73 | 1 to 10 | 73 | 1 to 10 |  |  |  |  |
| CCCCCCCCCCCCCCCC(=O)N[C@@H](CCC(=O)NCCCC[C@H](NC(=O)[C@H](CO)NC(=O)[C@@H]1CCCN1C(=O)[C@@H]1CCCN1C(=O)[C@@H]1CCCN1C(=O)[C@H](C)NC(=O)CNC(=O)[C@H](CO)NC(=O)[C@H](CO)NC(=O)[C@@H]1CCCN1C(=O)CNC(=O)CNC(=O)[C@H](C)NC(=O)[C@H](CC(C)C)NC(=O)[C@H](CC(C)C)NC(=O)[C@H](Cc1c[nH]c2ccccc12)NC(=O)[C@H](CC(N)=O)NC(=O)[C@@H](NC(=O)[C@H](Cc1ccccc1)NC(=O)[C@H](CCC(=O)O)NC(=O)C(C)(C)NC(=O)[C@H](C)NC(=O)[C@H](C)NC(=O)[C@H](CCC(N)=O)NC(=O)[C@H](CCCCN)NC(=O)[C@H](CC(=O)O)NC(=O)[C@H](CC(C)C)NC(=O)[C@H](Cc1ccc(O)cc1)NC(=O)[C@@H](NC(=O)[C@H](CO)NC(=O)[C@H](Cc1ccc(O)cc1)NC(=O)[C@H](CC(=O)O)NC(=O)[C@H](CO)NC(=O)[C@@H](NC(=O)[C@H](Cc1ccccc1)NC(=O)[C@@H](NC(=O)CNC(=O)[C@H](CCC(=O)O)NC(=O)CSCC(=O)NCCN1C(=O)CC(C)(C)CC1=O)[C@@H](C)O)[C@@H](C)O)[C@@H](C)CC)C(C)C)C(N)=O)C(=O)O [Compound 82] | 95 |  | 95 |  | 82 |  | 82 |  | 1 to 10 | 1 to 10 | 1 to 10 | 1 to 10 |
| CCCCCCCCCCCCCCCC(=O)N[C@@H](CCC(=O)NCCCC[C@H](NC(=O)[C@H](CO)NC(=O)[C@@H]1CCCN1C(=O)[C@@H]1CCCN1C(=O)[C@@H]1CCCN1C(=O)[C@H](C)NC(=O)CNC(=O)[C@H](CO)NC(=O)[C@H](CO)NC(=O)[C@@H]1CCCN1C(=O)CNC(=O)CNC(=O)[C@H](C)NC(=O)[C@H](CC(C)C)NC(=O)[C@H](CC(C)C)NC(=O)[C@H](Cc1c[nH]c2ccccc12)NC(=O)[C@H](CC(N)=O)NC(=O)[C@@H](NC(=O)[C@H](Cc1ccccc1)NC(=O)[C@H](CCC(=O)O)NC(=O)C(C)(C)NC(=O)[C@H](C)NC(=O)[C@H](C)NC(=O)[C@H](CCC(N)=O)NC(=O)[C@H](CCCCN)NC(=O)[C@H](CC(=O)O)NC(=O)[C@H](CC(C)C)NC(=O)[C@H](Cc1ccc(O)cc1)NC(=O)[C@@H](NC(=O)[C@H](CO)NC(=O)[C@H](Cc1ccc(O)cc1)NC(=O)[C@H](CC(=O)O)NC(=O)[C@H](CO)NC(=O)[C@@H](NC(=O)[C@H](Cc1ccccc1)NC(=O)[C@@H](NC(=O)CNC(=O)[C@H](CCC(=O)O)NC(=O)CSCC(=O)NCCN1C(=O)CNC1=O)[C@@H](C)O)[C@@H](C)O)[C@@H](C)CC)C(C)C)C(N)=O)C(=O)O [Compound 84] | 107 | 0.1 to 1 | 107 | 0.1 to 1 | 53 | 1 to 10 | 53 | 1 to 10 |  |  |  |  |
| CCCCCCCCCCCCCCCC(=O)N[C@@H](CCC(=O)NCCCC[C@H](NC(=O)[C@H](CO)NC(=O)[C@@H]1CCCN1C(=O)[C@@H]1CCCN1C(=O)[C@@H]1CCCN1C(=O)[C@H](C)NC(=O)CNC(=O)[C@H](CO)NC(=O)[C@H](CO)NC(=O)[C@@H]1CCCN1C(=O)CNC(=O)CNC(=O)[C@H](C)NC(=O)[C@H](CC(C)C)NC(=O)[C@H](CC(C)C)NC(=O)[C@H](Cc1c[nH]c2ccccc12)NC(=O)[C@H](CC(N)=O)NC(=O)[C@@H](NC(=O)[C@H](Cc1ccccc1)NC(=O)[C@H](CCC(=O)O)NC(=O)C(C)(C)NC(=O)[C@H](C)NC(=O)[C@H](C)NC(=O)[C@H](CCC(N)=O)NC(=O)[C@H](CCCCN)NC(=O)[C@H](CC(=O)O)NC(=O)[C@H](CC(C)C)NC(=O)[C@H](Cc1ccc(O)cc1)NC(=O)[C@@H](NC(=O)[C@H](CO)NC(=O)[C@H](Cc1ccc(O)cc1)NC(=O)[C@H](CC(=O)O)NC(=O)[C@H](CO)NC(=O)[C@@H](NC(=O)[C@H](Cc1ccccc1)NC(=O)[C@@H](NC(=O)CNC(=O)[C@H](CCC(=O)O)NC(=O)CSCC(=O)NCCN1C(=O)NC(C)(C)C1=O)[C@@H](C)O)[C@@H](C)O)[C@@H](C)CC)C(C)C)C(N)=O)C(=O)O [Compound 87] | 89 | 1 to 10 | 89 | 1 to 10 | 62 | 1 to 10 | 62 | 1 to 10 |  |  |  |  |
| CCCCCCCCCCCCCCCC(=O)N[C@@H](CCC(=O)NCCCC[C@H](NC(=O)[C@H](CO)NC(=O)[C@@H]1CCCN1C(=O)[C@@H]1CCCN1C(=O)[C@@H]1CCCN1C(=O)[C@H](C)NC(=O)CNC(=O)[C@H](CO)NC(=O)[C@H](CO)NC(=O)[C@@H]1CCCN1C(=O)CNC(=O)CNC(=O)[C@H](C)NC(=O)[C@H](CC(C)C)NC(=O)[C@H](CC(C)C)NC(=O)[C@H](Cc1c[nH]c2ccccc12)NC(=O)[C@H](CC(N)=O)NC(=O)[C@@H](NC(=O)[C@H](Cc1ccccc1)NC(=O)[C@H](CCC(=O)O)NC(=O)C(C)(C)NC(=O)[C@H](C)NC(=O)[C@H](C)NC(=O)[C@H](CCC(N)=O)NC(=O)[C@H](CCCCN)NC(=O)[C@H](CC(=O)O)NC(=O)[C@H](CC(C)C)NC(=O)[C@H](Cc1ccc(O)cc1)NC(=O)[C@@H](NC(=O)[C@H](CO)NC(=O)[C@H](Cc1ccc(O)cc1)NC(=O)[C@H](CC(=O)O)NC(=O)[C@H](CO)NC(=O)[C@@H](NC(=O)[C@H](Cc1ccccc1)NC(=O)[C@@H](NC(=O)CNC(=O)[C@H](CCC(=O)O)NC(=O)CSCC(=O)NCCN1C(=O)[C@H](C)C[C@H](C)C1=O)[C@@H](C)O)[C@@H](C)O)[C@@H](C)CC)C(C)C)C(N)=O)C(=O)O [Compound 88] | 108 |  | 108 |  | 102 |  | 102 |  | 1 to 10 | 1 to 10 | 1 to 10 | 1 to 10 |
| CCCCCCCCCCCCCCCC(=O)N[C@@H](CCC(=O)NCCCC[C@H](NC(=O)[C@H](CO)NC(=O)[C@@H]1CCCN1C(=O)[C@@H]1CCCN1C(=O)[C@@H]1CCCN1C(=O)[C@H](C)NC(=O)CNC(=O)[C@H](CO)NC(=O)[C@H](CO)NC(=O)[C@@H]1CCCN1C(=O)CNC(=O)CNC(=O)[C@H](C)NC(=O)[C@H](CC(C)C)NC(=O)[C@H](CC(C)C)NC(=O)[C@H](Cc1c[nH]c2ccccc12)NC(=O)[C@H](CC(N)=O)NC(=O)[C@@H](NC(=O)[C@H](Cc1ccccc1)NC(=O)[C@H](CCC(=O)O)NC(=O)C(C)(C)NC(=O)[C@H](C)NC(=O)[C@H](C)NC(=O)[C@H](CCC(N)=O)NC(=O)[C@H](CCCCN)NC(=O)[C@H](CC(=O)O)NC(=O)[C@H](CC(C)C)NC(=O)[C@H](Cc1ccc(O)cc1)NC(=O)[C@@H](NC(=O)[C@H](CO)NC(=O)[C@H](Cc1ccc(O)cc1)NC(=O)[C@H](CC(=O)O)NC(=O)[C@H](CO)NC(=O)[C@@H](NC(=O)[C@H](Cc1ccccc1)NC(=O)[C@@H](NC(=O)CNC(=O)[C@H](CCC(=O)O)NC(=O)CSCC(=O)NCCN1C(=O)C[C@@H](C)C1=O)[C@@H](C)O)[C@@H](C)O)[C@@H](C)CC)C(C)C)C(N)=O)C(=O)O [Compound 89] | 108 |  | 108 |  | 81 |  | 81 |  | 1 to 10 | 1 to 10 | 0.1 to 1 | 0.1 to 1 |
